# Patent US20230066156A1, “6-SUBSTITUTED, 22-CYANO HYODEOXYCHOLANIC ANALOGUES AND USES THEREOF” (PRECISION BIO-THERAPEUTICS S.R.L., priority 2019, published 2023)
# Several values for one entry are separate records, joined by “and”; a condition that tells them apart may be missing. Equal values may be shown once.
# Target: T1, human GPBAR1 (Homo sapiens, UniProt Q8TDU6)
# T1 construct: expressed in transfected cells; host or cells: HEK-293T
# T1 sequence (Q8TDU6 1-330): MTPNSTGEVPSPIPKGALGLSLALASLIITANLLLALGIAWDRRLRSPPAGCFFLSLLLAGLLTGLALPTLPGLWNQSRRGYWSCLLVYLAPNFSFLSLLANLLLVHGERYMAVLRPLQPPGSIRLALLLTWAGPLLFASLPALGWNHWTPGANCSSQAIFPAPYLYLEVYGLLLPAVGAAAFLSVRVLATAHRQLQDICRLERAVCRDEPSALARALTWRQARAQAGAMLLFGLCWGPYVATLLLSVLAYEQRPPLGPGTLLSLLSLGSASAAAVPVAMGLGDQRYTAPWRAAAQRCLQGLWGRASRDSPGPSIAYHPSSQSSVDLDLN
# Experiment: GPBAR1 mediated transactivation, CRE-luciferase reporter in transfected HEK-293T cells
# Format: cell-based
# Procedure: Selected compounds were tested in vitro on FXR and TGR5/GPBAR1 receptors (Table 1) using a whole cell model transfected with a reporter genes. The activity was evaluated in comparison with chenodeoxycholic acid (CDCA) and TLCA.
# CDCA is a primary bile acid that functions as an endogenous ligand for FXR, while TLCA is a physiological ligand for TGR5/GPBAR1. In this assay, HepG2 cells (a liver-derived cell line) were cultured at 37° C. in minimum essential medium with Earl's salts containing 10% fetal bovine serum (FBS), 1% L-glutamine, and 1% penicillin/streptomycin. HEK-293T cells were cultured at 37° C. in D-MEM containing 10% fetal bovine serum (FBS), 1% L-glutamine, and 1% penicillin/streptomycin. The transfection experiments were performed using Fugene HD according to manufactured specifications. Cells were plated in a 24-well plate at 5×10^4 cells/well. For FXR mediated transactivation, HepG2 cells were transfected with 100 ng of pSG5-FXR, 100 ng of pSG5-RXR, 100 ng of pGL4.70 a vector encoding the human Renilla gene and 250 ng of the reporter vector p(hsp27)-TK-LUC containing the FXR response element IR1 cloned from the promoter of heat shock protein 27 (hsp27).
# For GPBAR1 mediated transactivation, HEK-293T cells were transfected with 200 ng of pGL4.29, a reporter vector containing a cAMP response element (CRE) that drives the transcription of the luciferase reporter gene luc2P, with 100 ng of pCMVSPORT6-human GPBAR1, and with 100 ng of pGL4.70 a vector encoding the human Renilla gene. In control experiments HEK-293T cells were transfected only with vectors pGL4.29 and pGL4.70 to exclude any possibility that compounds could activate the CRE in a GPBAR1 independent manner. At 24 h post-transfection, cells were stimulated for 18 h with 10 μM TLCA as a control agent or putative GPBAR1 agonists as the same concentration. After treatments, cells were lysed in 100 μL of lysis buffer (25 mM Tris-phosphate, pH 7.8; 2 mM DTT; 10% glycerol; 1% Triton X-100), and 20 μL of cellular lysate was assayed for luciferase activity using the luciferase assay system. Luminescence was measured using Glomax 20/20 luminometer. Luciferase activities were normalized against Renilla activities. Antagonism against FXR of GPBAR1/TGR5 was measured as percent of activity in transactivation assay suing activity of TLCA as example of agonism.
# The data on the activity of certain compounds of the invention on TGR5/GPBAR1 are described in the following table 1. In this table, activities for compounds of the invention on GPBAR1 was compared to those of the reference compound TLCA. For % of activity, each compound was tested at the concentration of 10 microM and transactivation activity of TLCA on CRE (i.e. TGR5/GPBAR1) was considered equal to 100%. For selectivity toward FXR, activity was assessed in HepG2 cells transfected with an FXR responsive element (IR1) cloned upstream to the luciferase gene. For calculation of efficacy data, maximal transactivation of IR1 caused by each compound (10 μM) was compared to maximal transactivation caused by CDCA (10 μM). GPBAR1/FXR selectivity calculated as ratio between % of activity toward GPBAR1 and % of activity toward FXR. Each experiment was conducted in triplicate.
smiles,measurement,setting,value
"CC[C@]1(O)C[C@H]2[C@@H]3CC[C@H]([C@H](C)CC#N)[C@@]3(C)CC[C@@H]2[C@@]2(C)CC[C@@H](O)C[C@@H]12 [PBT110B, 3α,6α-dihydroxy-6β-ethyl-24-nor-5β-cholan-23-nitrile]",EC50,HEK-293T CRE-luciferase transactivation,300 nM
same,GPBAR1 (% of activity in comparison to 10 μM TLCA),"compound at 10 microM, HEK-293T, TLCA = 100%, triplicate",101.2% and 101.2 ± 4.1%
same,GPBAR1/FXR selectivity,ratio between % of activity toward GPBAR1 and % of activity toward FXR,8.2
